Experimental data reported in patent US20230114241A1, “METHODS OF TREATING EPILEPSY USING THE SAME” (Trevena, Inc., priority 2019, published 2023).

Experiments:
[1] = target: T1, human sphingosine-1-phosphate receptor 1 (S1P1) (Homo sapiens, UniProt P21453); experiment: β-Arrestin2 recruitment assay (PathHunter), S1P1 CHO-K1 cells; assay type: cell-based; conditions: for Emax: CHO-K1, β-arrestin2 recruitment, efficacy normalized to maximum efficacy of fingolimod, read-out: hS1P1 B-arrestin2 SPAN; for EC50: β-arrestin2 recruitment, potency, read-out: hS1P1 B-arrestin2 pEC50 (converted)
Procedure: Stable clonal Chinese hamster ovary K1 (CHO-K1) cells co-expressing EA-β-arrestin2 and the human sphingosine-1-phosphate receptor 1 (NM_001400, S1P1) with a C-terminal Prolink™ tag were purchased from DiscoverX corporation (Cat #: 93-0207C2).
Cell lines were cultured in AssayComplete™ Media 6 (DiscoverX Corporation, Cat #: 920018GF2) at 37° C. and 5% CO2 in a humidified CO2 and temperature-controlled incubator. To begin assay plating, cells were washed with Dulbecco's phosphate buffered saline (CellGro, Cat #: 21-031-CV) and lifted from the culturing flask by incubation (37° C., 5 min) with CellStripper (Cellgro, Cat #: 25-056-CI). […] Plated cells were incubated overnight at 37° C. and 5% CO2 in a humidified CO2 and temperature-controlled incubator.
Agonist-promoted β-arrestin2 recruitment to the sphingosine-1-phosphate 1 receptor was determined using the β-arrestin PathHunter® Detection kit (DiscoverX Corporation, Cat #: 93-0001). […] In cells that stably express these fusion proteins, stimulation with a cognate agonist results in the interaction of β-arrestin2 and the Prolink™-tagged GPCR. This allows the complementation of the two β-galactosidase fragments and results in the formation of a functional enzyme with β-galactosidase activity. […] Following a 60 minute incubation at 37° C. and 5% CO2 in a humidified CO2 and temperature-controlled incubator, the components of the β-arrestin PathHunter® Detection kit were added as per the manufacturer's instructions. After an hour incubation at room temperature, plates were analyzed by a BMG PheraStar microplate reader.
These values are normalized to fingolimod, a known agonist of the sphingosine-1-phosphate 1 receptor.
Target sequence in this assay (P21453 whole entry): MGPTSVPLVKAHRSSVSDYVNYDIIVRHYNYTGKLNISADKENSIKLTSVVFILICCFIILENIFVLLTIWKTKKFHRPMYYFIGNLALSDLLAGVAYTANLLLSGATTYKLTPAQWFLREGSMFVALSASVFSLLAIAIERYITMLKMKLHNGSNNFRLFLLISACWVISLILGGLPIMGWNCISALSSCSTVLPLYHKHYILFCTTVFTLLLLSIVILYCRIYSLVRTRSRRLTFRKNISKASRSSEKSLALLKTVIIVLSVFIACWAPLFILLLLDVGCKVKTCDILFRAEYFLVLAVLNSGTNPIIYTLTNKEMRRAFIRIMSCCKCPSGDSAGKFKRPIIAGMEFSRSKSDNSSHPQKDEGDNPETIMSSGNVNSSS
Target sequence in this assay (P32121 whole entry partner): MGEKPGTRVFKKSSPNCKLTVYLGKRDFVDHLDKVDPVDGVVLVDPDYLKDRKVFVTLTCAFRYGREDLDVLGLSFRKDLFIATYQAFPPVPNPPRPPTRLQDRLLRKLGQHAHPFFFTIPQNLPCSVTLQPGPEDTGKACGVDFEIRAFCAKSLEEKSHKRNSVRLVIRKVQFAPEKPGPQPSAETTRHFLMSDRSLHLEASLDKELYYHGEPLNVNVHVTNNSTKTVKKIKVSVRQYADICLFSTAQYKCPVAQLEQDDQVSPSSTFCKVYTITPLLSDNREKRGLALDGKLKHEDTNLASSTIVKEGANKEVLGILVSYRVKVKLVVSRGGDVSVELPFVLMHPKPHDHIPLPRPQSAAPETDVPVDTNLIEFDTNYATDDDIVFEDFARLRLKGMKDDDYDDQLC

[2] = target: T1, human sphingosine-1-phosphate receptor 1 (S1P1); experiment: Inhibition of cAMP production (HTRF cAMP HiRange), S1P1 CHO-K1 cells; assay type: cell-based; conditions: inhibition of cAMP production; for Emax: CHO-K1, efficacy normalized to maximum efficacy of fingolimod, read-out: hS1P1 CAMP SPAN; for EC50: potency, read-out: hS1P1 CAMP pEC50 (converted)
In short: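 Intracellular cAMP changes read by TR-FRET (HTRF HiRange, 1 h room temperature) after 30 min compound exposure at 37 °C. Cells: overnight-plated CHO-K1 stably expressing tagged human S1P1 with EA-β-arrestin2. Responses normalized to fingolimod.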
Target sequence in this assay (P21453 whole entry): as the sequence (P21453 whole entry) above

SMILES | Emax [1] [%] | EC50 [1] [µM] | Emax [2] [%] | EC50 [2] [µM]
OCCCn1nnc2cc(-c3noc(-c4ccccc4Br)n3)ccc21 [Compound 24, 3-(5-(5-(2-bromophenyl)-1,2,4-oxadiazol-3-yl)-1H-benzo[d][1,2,3]triazol-1-yl)propan-1-ol] | < 75 | > 10 | > 75 | > 0.316
CCC1(CC)CC(=O)c2cc(-c3nc(-c4ccc(S(=O)(=O)N(C)C)cc4)no3)ccc2O1 [Compound 30, 4-(5-(2,2-diethyl-4-oxochroman-6-yl)-1,2,4-oxadiazol-3-yl)-N,N-dimethylbenzene-sulfonamide] | < 75 | > 10 | < 75 | > 0.316
CCC1(CC)CC(=O)c2cc(-c3nc(-c4ccc(C)s4)no3)ccc2O1 [Compound 34, 2,2-diethyl-6-(3-(5-methylthiophen-2-yl)-1,2,4-oxadiazol-5-yl)chroman-4-one] | < 75 | < 10 | > 75 | > 0.316
C=CCn1nc2ccc(-c3nc(-c4ccccc4)no3)cc2n1 [Compound 39, 5-(3-phenyl-1,2,4-oxadiazol-5-yl)-2-(prop-2-en-1-yl)-2H-1,2,3-benzotriazole] | < 75 | > 10 | < 75 | > 0.316
Brc1ccccc1-c1nc(-c2ccc3c(c2)nnn3C2CCCC2)no1 [Compound 40, 5-(2-bromophenyl)-3-(1-cyclopentyl-1H-benzo[d][1,2,3]triazol-5-yl)-1,2,4-oxadiazole] | > 75 | < 10 | > 75 | < 0.316
C=CCn1nnc2cc(-c3noc(-c4ccccc4Br)n3)ccc21 [Compound 42, 3-(1-allyl-1H-benzo[d][1,2,3]triazol-5-yl)-5-(2-bromo-phenyl)-1,2,4-oxadiazole] | > 75 | > 10 | > 75 | > 0.316
Brc1ccccc1-c1nc(-c2ccc3c(c2)nnn3Cc2ccccn2)no1 [Compound 45, 5-(2-bromophenyl)-3-(1-(pyridin-2-ylmethyl)-1H-benzo[d][1,2,3]triazol-5-yl)-1,2,4-oxadiazole] | < 75 | > 10 | < 75 | > 0.316
Cc1ccsc1-c1noc(-c2ccc3c(c2)nnn3C2CCCC2)n1 [Compound 46, 1-cyclopentyl-5-[3-(3-methylthiophen-2-yl)-1,2,4-oxadiazol-5-yl]-1H-1,2,3-benzotriazole] | > 75 | < 10 | > 75 | < 0.316
Brc1ccccc1-c1nc(-c2ccc3c(c2)nnn3Cc2ccncc2)no1 [Compound 48, 5-(2-bromophenyl)-3-(1-(pyridin-4-ylmethyl)-1H-benzo[d][1,2,3]triazol-5-yl)-1,2,4-oxadiazole] | < 75 | > 10 | < 75 | > 0.316
Brc1ccccc1-c1nc(-c2ccc3c(c2)nnn3Cc2ccccc2)no1 [Compound 52, 3-(1-benzyl-1H-benzo[d][1,2,3]triazol-5-yl)-5-(2-bromophenyl)-1,2,4-oxadiazole] | < 75 | > 10 | < 75 | > 0.316
O=C1CCOc2ccc(-c3nc(-c4ccncc4)no3)cc21 [Compound 57, 6-[3-(pyridin-4-yl)-1,2,4-oxadiazol-5-yl]-3,4-dihydro-2H-1-benzopyran-4-one] | < 75 | > 10 | < 75 | > 0.316
CCC1(CC)CC(=O)c2cc(-c3nc(-c4ccc(N(C)C)cc4)no3)ccc2O1 [Compound 60, 6-(3-(4-(dimethyl-amino)phenyl)-1,2,4-oxadiazol-5-yl)-2,2-diethylchroman-4-one] | < 75 | > 10 | < 75 | > 0.316

Results, then the compound that gave them:

Emax [1] [%] | EC50 [1] [µM] | Emax [2] [%] | EC50 [2] [µM] | SMILES
< 75 | > 10 | < 75 | > 0.316 | CC(C)n1nnc2cc(-c3noc(-c4cccc(COc5ccccc5)c4)n3)ccc21 [Compound 23, 3-(1-isopropyl-1H-benzo[d][1,2,3]triazol-5-yl)-5-(3-(phenoxy-methyl)phenyl)-1,2,4-oxadiazole]
< 75 | > 10 | < 75 | > 0.316 | CC(C)c1ccc(-c2nc(-c3ccc4c(c3)nnn4C(C)C)no2)cn1 [Compound 25, 3-(1-isopropyl-1H-benzo[d][1,2,3]triazol-5-yl)-5-(6-isopropyl-pyridin-3-yl)-1,2,4-oxadiazole]
< 75 | > 10 | < 75 | > 0.316 | CCC1(CC)CC(=O)c2cc(-c3nc(-c4ccc5c(c4)nnn5C(C)C)ns3)ccc2O1 [Compound 29, 2,2-diethyl-6-(3-(1-isopropyl-1H-benzo[d][1,2,3]triazol-5-yl)-1,2,4-thiadiazol-5-yl)chroman-4-one]
> 75 | < 10 | > 75 | < 0.316 | CC(C)n1nnc2cc(-c3noc(-c4ccccc4C(F)(F)F)n3)ccc21 [Compound 33, 3-(1-isopropyl-benzotriazol-5-yl)-5-[2-(trifluoromethyl)phenyl]-1,2,4-oxadiazole]
> 75 | > 10 | > 75 | > 0.316 | COc1ccccc1-c1nnc(-c2ccc3c(c2)nnn3C(C)C)o1 [Compound 35, 5-[5-(2-methoxyphenyl)-1,3,4-oxadiazol-2-yl]-1-(propan-2-yl)-1H-1,2,3-benzotriazole]
< 75 | > 10 | < 75 | > 0.316 | CC(C)n1nnc2cc(-c3ncc(-c4ccc(F)cc4)s3)ccc21 [Compound 37, 5-(4-fluorophenyl)-2-(1-isopropyl-benzotriazol-5-yl)thiazole]
> 75 | < 10 | > 75 | < 0.316 | CC(C)n1nnc2cc(-c3noc(-c4ccccc4Br)n3)ccc21 [Compound 43, 5-(2-bromophenyl)-3-(1-isopropyl-1H-benzo[d][1,2,3]triazol-5-yl)-1,2,4-oxadiazole]
< 75 | > 10 | < 75 | > 0.316 | Cc1nccnc1-c1nc(-c2ccc3c(c2)nnn3C(C)C)no1 [Compound 44, 3-(1-isopropyl-1H-benzo[d][1,2,3]triazol-5-yl)-5-(3-methylpyrazin-2-yl)-1,2,4-oxadiazole]
< 75 | > 10 | < 75 | > 0.316 | CSc1cccc(-c2nc(-c3ccc4c(c3)nnn4C3CCCC3)no2)c1 [Compound 47, 3-(1-cyclopentyl-1H-benzo[d][1,2,3]triazol-5-yl)-5-(3-(methylthio)phenyl)-1,2,4-oxadiazole]
< 75 | > 10 | < 75 | > 0.316 | CC(C)n1nnc2cc(-c3nc(-c4ccc(COc5ccccc5)cc4)no3)ccc21 [Compound 49, 5-{3-[4-(phenoxy-methyl)phenyl]-1,2,4-oxadiazol-5-yl}-1-(propan-2-yl)-1H-1,2,3-benzotriazole]
< 75 | > 10 | < 75 | > 0.316 | COc1cnc(-c2nc(-c3ccc4c(c3)nnn4C(C)C)no2)cn1 [Compound 51, 3-(1-isopropyl-1H-benzo[d][1,2,3]triazol-5-yl)-5-(5-methoxypyrazin-2-yl)-1,2,4-oxadiazole]
> 75 | > 10 | < 75 | > 0.316 | CCCn1nnc2cc(-c3nc(-c4cccc(C)c4)no3)ccc21 [Compound 54, 5-[3-(3-methylphenyl)-1,2,4-oxadiazol-5-yl]-1-propyl-1H-1,2,3-benzotriazole]
< 75 | > 10 | < 75 | > 0.316 | CC(C)C(c1ccccc1)c1noc(-c2ccc3c(c2)nnn3C(C)C)n1 (stereo not drawn) [Compound 56, 5-[3-(2-methyl-1-phenyl-propyl)-1,2,4-oxadiazol-5-yl]-1-(propan-2-yl)-1H-1,2,3-benzotriazole]
> 75 | > 10 | > 75 | > 0.316 | CC(C)Oc1ccccc1-c1noc(-c2ccc3c(c2)nnn3C(C)C)n1 [Compound 62, 3-(2-isopropoxyphenyl)-5-(1-isopropyl-1H-benzo[d][1,2,3]triazol-5-yl)-1,2,4-oxadiazole]
< 75 | > 10 | < 75 | < 0.316 | CC(C)n1nnc2cc(-c3ncc(-c4ccccc4F)s3)ccc21 [Compound 63, 5-(2-fluorophenyl)-2-(1-isopropyl-1H-benzo[d][1,2,3]triazol-5-yl)thiazole]
